US20070293514A1, “Triazolopyrimidines” (priority 2003, published 2007)

Experiment: logP by HPLC (EEC Directive 79/831 Annex V. A8, gradient method)
Format: physicochemical
Settings: acetonitrile/0.1% aqueous phosphoric acid
`CCC(C)c1c(Cl)nc2ncnn2c1Cl` (stereo not drawn) [5,7-dichloro-6-sec-butyl[1,2,4]triazolo[1,5-a]pyrimidine] gave a chromatographic logP of 2.4. With `CCC(C)c1c(O)n2ncnc2[nH]c1=O` (stereo not drawn) [6-sec-butyl-7-hydroxy[1,2,4]triazolo[1,5-a]pyrimidin-5(4H)-one] the chromatographic logP was 0.7. With `C[Si](C)(C)CNc1c(-c2ccc(F)cc2Cl)c(Cl)nc2ncnn12` [Example 1] the chromatographic logP was 3.61. Compound `CC(Nc1c(-c2c(F)cc(F)cc2F)c(Cl)nc2ncnn12)[Si](C)(C)C` (stereo not drawn) [Example 2] has a chromatographic logP of 3.71. In the case of `C[Si](C)(C)CNc1c(-c2c(F)cccc2Cl)c(Cl)nc2ncnn12` [Example 3], the logP is reported as 3.43. For `C[Si](C)(C)CNc1c(-c2c(F)cc(F)cc2F)c(Cl)nc2ncnn12` [Example 4], the chromatographic logP was 3.39. With `CC(Nc1c(-c2c(F)cccc2Cl)c(Cl)nc2ncnn12)[Si](C)(C)C` (stereo not drawn) [Example 5] the logP was 3.79. With `CC(Nc1c(-c2ccc(F)cc2Cl)c(Cl)nc2ncnn12)[Si](C)(C)C` (stereo not drawn) [Example 6] the logP was 3.95. `CC(Nc1c(-c2ccccc2Cl)c(Cl)nc2ncnn12)[Si](C)(C)C` (stereo not drawn) [Example 7] showed a logP of 3.83. `CC(C)c1nc2nc(Cl)c(-c3ncc(C(F)(F)F)cc3Cl)c(NC[Si](C)(C)C)n2n1` [Example 8] gave a logP of 4.51. For `CC(C)c1nc2nc(Cl)c(-c3ncncc3F)c(NC(C)[Si](C)(C)C)n2n1` (stereo not drawn) [Example 9], the logP was 3.61. `CC(Nc1c(-c2ncccc2C(F)(F)F)c(Cl)nc2ncnn12)[Si](C)(C)C` (stereo not drawn) [Example 10] showed a logP of 3.06. Work on `CC(Nc1c(-c2c(F)cccc2Cl)c(Cl)nc2nc(C3CC3)nn12)[Si](C)(C)C` (stereo not drawn) [Example 11] yielded a logP of 4.65. `C[Si](C)(C)CNc1c(-c2c(F)cccc2Cl)c(Cl)nc2nc(C3CC3)nn12` [Example 12] gave a logP of 4.22. In the case of `C[Si](C)(C)CNc1c(-c2cc(F)ccc2F)c(Cl)nc2nc(C3CC3)nn12` [Example 13], the chromatographic logP is reported as 3.99. Work on `CC(Nc1c(-c2cc(F)ccc2F)c(Cl)nc2nc(C3CC3)nn12)[Si](C)(C)C` (stereo not drawn) [Example 14] yielded a chromatographic logP of 4.35. Work on `CC(C)c1nc2nc(Cl)c(-c3cc(F)ccc3F)c(NC(C)[Si](C)(C)C)n2n1` (stereo not drawn) [Example 15] yielded a chromatographic logP of 4.58. `CC(C)c1nc2nc(Cl)c(-c3cc(F)ccc3F)c(NC[Si](C)(C)C)n2n1` [Example 16] gave a chromatographic logP of 4.21. `Cc1nc2nc(Cl)c(-c3cc(F)ccc3F)c(NC(C)[Si](C)(C)C)n2n1` (stereo not drawn) [Example 17] gave a chromatographic logP of 3.73. For `Cc1nc2nc(Cl)c(-c3cc(F)ccc3F)c(NC[Si](C)(C)C)n2n1` [Example 18], the chromatographic logP was 3.4. Work on `CC(Nc1c(-c2ncncc2F)c(Cl)nc2nc(C3CC3)nn12)[Si](C)(C)C` (stereo not drawn) [Example 19] yielded a logP of 2.99. In the case of `C[Si](C)(C)CNc1c(-c2ccccc2Cl)c(Cl)nc2nc(C3CC3)nn12` [Example 20], the logP is reported as 4.23. For `CC(Nc1c(-c2ccccc2Cl)c(Cl)nc2nc(C3CC3)nn12)[Si](C)(C)C` (stereo not drawn) [Example 21], the logP was 4.66. Compound `C[Si](C)(C)CNc1c(-c2ncncc2F)c(Cl)nc2nc(C3CC3)nn12` [Example 22] has a logP of 3.02. With `CC(Nc1c(-c2ncncc2Cl)c(Cl)nc2ncnn12)[Si](C)(C)C` (stereo not drawn) [Example 23] the logP was 2.70. Work on `C[Si](C)(C)CNc1c(-c2ncncc2Cl)c(Cl)nc2ncnn12` [Example 24] yielded a logP of 2.44. Work on `CCC(C)c1c(Cl)nc2ncnn2c1NC[Si](C)(C)C` (stereo not drawn) [Example 26, 5-chloro-6-sec-butyl-7-trimethylsilylmethylamino[1,2,4]triazolo[1,5-a]pyrimidine] yielded a chromatographic logP of 3.34. For `Cc1nc2nc(Cl)c(-c3ncncc3F)c(NC[Si](C)(C)C)n2n1` [Example 27], the logP was 2.43. `Cc1nc2nc(Cl)c(-c3ncncc3F)c(NC(C)[Si](C)(C)C)n2n1` (stereo not drawn) [Example 28] showed a logP of 2.73. With `C[Si](C)(C)CNc1c(-c2cc(F)ccc2F)c(Cl)nc2ncnn12` [Example 39] the chromatographic logP was 3.26. `CC(Nc1c(-c2cc(F)ccc2F)c(Cl)nc2ncnn12)[Si](C)(C)C` (stereo not drawn) [Example 40] gave a chromatographic logP of 3.57. Work on `C[Si](C)(C)CNc1c(-c2ncncc2F)c(Cl)nc2ncnn12` [Example 41] yielded a logP of 2.28. `CC(Nc1c(-c2ncncc2F)c(Cl)nc2ncnn12)[Si](C)(C)C` (stereo not drawn) [Example 42] gave a logP of 2.57.
